Like-named read-outs stand apart in the source and are kept apart here.
Key:
Assay type in all cases: biochemical
[1] = biological target: Enzyme (kinases of Table 29) (Homo sapiens, UniProt P78368); experiment: Percent Activity of Enzyme When Treated with 300 nM of Compound (ATP present at Km of enzyme), Table 29; conditions: CK1γ2(h)
[2] = system: Enzyme (kinases of Table 29); experiment: as above
[3] = biological target: Enzyme (kinases of Table 30); experiment: IC50 of Compound (nM) (ATP present at Km of enzyme), Table 30; conditions: ATP present at Km of enzyme

Chain of Enzyme (kinases of Table 29) (Homo sapiens, UniProt P78368) (P78368 whole entry): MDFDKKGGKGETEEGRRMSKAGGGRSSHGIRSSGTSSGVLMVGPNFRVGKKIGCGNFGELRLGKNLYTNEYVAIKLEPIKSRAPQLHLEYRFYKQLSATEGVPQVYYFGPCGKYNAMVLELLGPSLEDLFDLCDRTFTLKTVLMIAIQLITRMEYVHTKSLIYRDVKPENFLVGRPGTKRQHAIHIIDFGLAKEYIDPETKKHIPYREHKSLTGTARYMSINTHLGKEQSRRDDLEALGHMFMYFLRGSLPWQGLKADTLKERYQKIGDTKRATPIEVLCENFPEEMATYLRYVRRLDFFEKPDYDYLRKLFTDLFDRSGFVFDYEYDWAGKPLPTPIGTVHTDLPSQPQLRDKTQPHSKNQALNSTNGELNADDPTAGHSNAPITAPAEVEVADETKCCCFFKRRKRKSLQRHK

SMILES: CN(C)CCOc1cc(/C=C2\SC(=O)NC2=O)nc(N2CCN(S(=O)(=O)c3ccccc3)CC2)n1 [compound 214, (Z)-5-((6-(2-(dimethylamino)ethoxy)-2-(4-(phenylsulfonyl)piperazin-1-yl)pyrimidin-4-yl)methylene)thiazolidine-2,4-dione]
- Percent Activity of Enzyme, CK1γ2(h) [1]: 41%
- Percent Activity of Enzyme, CK1(y) ([2]; CK1(y)): 79%
- Percent Activity of Enzyme, CK2(h) ([2]; CK2(h)): 77%
- Percent Activity of Enzyme, Pim-1(h) ([2]; Pim-1(h)): 25%
- Percent Activity of Enzyme, Pim-2(h) ([2]; Pim-2(h)): 13%
- Percent Activity of Enzyme, Pim-3(h) ([2]; Pim-3(h)): 16%
- IC50 ([3]; Pim-1(h), read-out: IC50 of Compound, Pim-1(h)): 95 nM
- IC50 ([3]; Pim-2(h), read-out: IC50 of Compound, Pim-2(h)): 35 nM
- IC50 ([3]; Pim-3(h), read-out: IC50 of Compound, Pim-3(h)): 60 nM
